The text below walks through data of PubChem BioAssay (NCI).

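Exposure lasted 48 hours, with cells grown in 96-well plates and compounds tested at five concentrations. At the TGI there is no net growth.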 Where a SMILES comes first, the peptide text is derived from it. The star is where a group is joined. Boc = CC(C)(C)OC(=O)*; Bn = c1ccc(C*)cc1

Among the test systems are HL-60(TB) leukemia; IGROV1 ovarian; MCF7 breast; SNB-19 CNS; HCT-15 colon; HS 578T breast; HCT-116 colon; EKVX NSCLC; HOP-92 NSCLC; NCI-H522 lung; OVCAR-8 ovarian; UO-31 renal.
Holding throughout (assay): NCI tumour cell line growth inhibition, 48 h

`CC(=O)N(C(C)=O)c1ncc(-n2nc(-c3ccccc3)cc2-c2ccccc2)c(-c2ccccc2)n1`: the TGI with HL-60(TB) leukemia, in the test with IGROV1 ovarian, with MCF7 breast, with SNB-19 CNS, in the test with HCT-15 colon and in the test on HS 578T breast was above 10 µM each time. In addition, the TGI in the test with HCT-116 colon, in the test with EKVX NSCLC, with HOP-92 NSCLC, in the test with NCI-H522 lung and in the test with OVCAR-8 ovarian was above 10 µM throughout.
Turning to `c1ccc(N=C(N2CCCC2)N(CCN2CCCC2)c2ccccc2)cc1`, the TGI in the test on HL-60(TB) leukemia, with IGROV1 ovarian, in the test with MCF7 breast, in the test with SNB-19 CNS, in the test with UO-31 renal and in the test on HCT-15 colon was above 100 µM each time. For the same molecule, the TGI in the test on HS 578T breast, in the test with HCT-116 colon, with EKVX NSCLC, in the test on HOP-92 NSCLC, in the test on NCI-H522 lung and in the test with OVCAR-8 ovarian was above 100 µM throughout.
Consider `Cc1ccc(-c2c(C#N)c(-c3ccc(C)cc3)n(NS(=O)(=O)c3ccccc3)c(=O)c2C#N)cc1`, for which the TGI in the test with IGROV1 ovarian, in the test on MCF7 breast, in the test with SNB-19 CNS, in the test with HCT-15 colon, in the test with HS 578T breast and with HCT-116 colon was above 100 µM each time. The TGI in the test with EKVX NSCLC, with HOP-92 NSCLC, in the test on NCI-H522 lung and in the test with OVCAR-8 ovarian was above 100 µM in each case.
Consider `Cc1n(Cc2ccccc2)c2c([n+]1C)C(=O)c1ccccc1C2=O`, for which the TGI with IGROV1 ovarian came out at 0.127 µM; with MCF7 breast, 0.079 µM; in the test with SNB-19 CNS, 0.0916 µM; with UO-31 renal, 20.9 µM; in the test with HCT-15 colon it was 16.2 µM; in the test with HS 578T breast, 2.14 µM. For the same molecule, the TGI in the test on HCT-116 colon came to 0.512 µM; in the test on EKVX NSCLC, 1.01 µM; with HOP-92 NSCLC, 1.49 µM; with NCI-H522 lung, 0.135 µM; in the test with OVCAR-8 ovarian, 0.826 µM.
With `CN(CCSCCN(C)C(=O)OC(C)(C)C)C(=O)OC(C)(C)C`, the TGI in the test on IGROV1 ovarian, in the test with MCF7 breast, in the test on SNB-19 CNS, in the test with UO-31 renal, in the test on HCT-15 colon and with HS 578T breast was above 100 µM in each case. Also, the TGI with HCT-116 colon, in the test with EKVX NSCLC, in the test with HOP-92 NSCLC, with NCI-H522 lung and with OVCAR-8 ovarian was above 100 µM throughout.
As for `O=C1COc2cccnc2N1CCCCO`, the TGI in the test with HL-60(TB) leukemia, with IGROV1 ovarian, with MCF7 breast, in the test with SNB-19 CNS, in the test on UO-31 renal and in the test with HCT-15 colon was above 100 µM each time. For the same molecule, the TGI with HS 578T breast, in the test on HCT-116 colon, with EKVX NSCLC, in the test with HOP-92 NSCLC and in the test with NCI-H522 lung was above 100 µM each time.
For the molecule `C=CCc1cccc2cc(C(=O)NCc3ccccc3)c(=N)oc12`, the TGI in the test on HL-60(TB) leukemia is above 100 µM; in the test on IGROV1 ovarian it was above 100 µM; in the test on MCF7 breast, above 100 µM; in the test on SNB-19 CNS, above 100 µM; with HCT-15 colon it was above 100 µM; with HS 578T breast, 63.8 µM. Besides, the TGI with HCT-116 colon was 70.7 µM; in the test with EKVX NSCLC, above 100 µM; with HOP-92 NSCLC it was above 100 µM; in the test on NCI-H522 lung, 44.2 µM; in the test with OVCAR-8 ovarian it was above 100 µM.
Turning to `COC(=O)C(CC(C)C)NC(=O)C(C)NC(=O)C(Cc1ccc(OCc2ccccc2)cc1)NC(=O)C(COCc1ccccc1)NC(=O)OC(C)(C)C` (configuration not stated) (Boc-S(Bn)Y(Bn)AL-OMe; configuration not given here), the TGI in the test with HL-60(TB) leukemia, in the test with IGROV1 ovarian, with MCF7 breast, in the test on SNB-19 CNS, in the test with UO-31 renal and in the test on HS 578T breast was above 100 µM in each case. In addition, the TGI with HCT-116 colon, in the test on EKVX NSCLC, in the test on HOP-92 NSCLC, in the test on NCI-H522 lung and in the test on OVCAR-8 ovarian was above 100 µM throughout.
Take `CC(=O)Nc1sc(Br)cc1S(=O)(=O)c1ccc(Cl)cc1`: the TGI was 63.4 µM in the test on HL-60(TB) leukemia; above 100 µM in the test with IGROV1 ovarian; 47.3 µM in the test with MCF7 breast; above 100 µM in the test on SNB-19 CNS; 83.1 µM with UO-31 renal; 56.3 µM in the test with HS 578T breast. Besides, the TGI is above 100 µM with HCT-116 colon; above 100 µM in the test with EKVX NSCLC; 59.5 µM with HOP-92 NSCLC; 47.6 µM in the test on NCI-H522 lung; 68.7 µM in the test on OVCAR-8 ovarian.
With `Cc1ccc(/C=N/Nc2cc(C)c3cccc(C)c3n2)s1`, the TGI in the test with IGROV1 ovarian is 22.2 µM; in the test with MCF7 breast, 18 µM; in the test with SNB-19 CNS it was above 100 µM; with UO-31 renal, 38.7 µM; in the test on HCT-15 colon, 17.4 µM; in the test with HS 578T breast, 41.6 µM. For the same molecule, the TGI with HCT-116 colon stood at 12.4 µM; in the test with EKVX NSCLC it was 38.2 µM; in the test on HOP-92 NSCLC it was 59.4 µM; in the test on NCI-H522 lung, 16.9 µM; in the test with OVCAR-8 ovarian it was 26.9 µM.
For the molecule `[N-]=[N+]=Nc1c([N+](=O)[O-])c(=O)n(-c2ccccc2)c2ccccc12`, the TGI is 88.4 µM in the test on IGROV1 ovarian; 67 µM in the test on MCF7 breast; above 100 µM with SNB-19 CNS; 32.2 µM with UO-31 renal; 64.6 µM in the test on HCT-15 colon; 72.1 µM in the test on HS 578T breast. Further, the TGI in the test with HCT-116 colon was 51.3 µM; with EKVX NSCLC, 64.5 µM; in the test on HOP-92 NSCLC it was 86.9 µM; in the test with NCI-H522 lung, above 100 µM; with OVCAR-8 ovarian, 48.9 µM.
Regarding `CCOC(=O)NC(Nc1ccc(C)cc1)(C(F)(F)F)C(F)(F)F`, the TGI in the test on HL-60(TB) leukemia, in the test on IGROV1 ovarian, in the test on MCF7 breast, in the test with SNB-19 CNS, with UO-31 renal and with HCT-15 colon was above 100 µM throughout. Further, the TGI with HS 578T breast, with HCT-116 colon, with HOP-92 NSCLC, in the test on NCI-H522 lung and in the test with OVCAR-8 ovarian was above 100 µM throughout.
